“Also recorded” adds a separate entry of the source.

Results on 1 molecule are retold here after patent US20190381015A1, “PHARMACEUTICAL USE OF BERBERINE” (priority 2016, published 2019).

Data set [1] deals with pulmonary arterial smooth muscle cells. In words: Noradrenaline-stimulated pulmonary arterial smooth muscle cells: Grk2 and LKB1. The class given is cell-based. The settings on record: pulmonary arterial smooth muscle cells of normal animals, berberine added for 30 minutes (CTL group), FIG. 1. How it is done: FIG. 1 is a schematic diagram of berberine inhibiting noradrenaline. The pulmonary arterial smooth muscle cells are stimulated with noradrenaline (NE) for 2 hours and then randomly divided into a berberine group (Ctl group, berberine for 4 hours) and a control group. In the control group, cells are collected at various time points (30 minutes-4 hours) after the grouping, and the protein phosphorylation activities of liver kinase B1 (LKB1) and G-protein coupled receptor kinase 2 (Grk2) are measured. GAPDH is an internal reference protein.

The subject of data set [2] is pulmonary hypertension induced by dehydrogenated monocrotaline. In words: Dehydrogenated monocrotaline-induced pulmonary hypertension in beagles. The class given is in vivo. The text has this: FIG. 2 is a mirror view for a contrast experiment of berberine inhibiting pulmonary artery remodeling. Animals with pulmonary hypertension are randomly divided into a normal control group, a berberine group, and a blank group without treatment. Histochemical staining (HE) and vascular endothelial vWF staining, smooth muscle cell staining (SMA).
20 beagles were selected, were subjected to pulmonary hemodynamics measurement, and then were randomly divided into a berberine group ([…]) and a control group (intragastric gavage of a berberine coating, without berberine, 14 days in total). […] Results: the mean pulmonary arterial pressure of only one animal in the berberine group reaches 28 mmHg, and the mean pulmonary arterial pressures of the other 9 animals are all <25 mmHg (19±3.0 mmHg). In contrast, the mean pulmonary arterial pressures of 8 animals in the control group are all >26 mmHg (28.4±2.1 mmHg), one animal for 24.6 mmHg, and the other one for 24.8 mmHg.

Data set [3] deals with idiopathic pulmonary hypertension. In words: Clinical experiment in patients with idiopathic pulmonary hypertension. The settings on record: berberine 0.3 g/d for 3 months added to original targeted drugs, 3 per group. The class given is in vivo, human. The text has this:
FIG. 4 is a histogram of contrast experiment data showing that berberine reduces the mean pulmonary arterial pressure. […] Every three data columns in the figure are a group, and are a normal group, a blank group, and a berberine group from left to right in sequence.
Six patients with idiopathic pulmonary hypertension were divided into two groups (3 in each group): a control group (administered with targeted drugs according to the original doses) and a berberine group (based on the original targeted drugs, additionally administered with berberine at 0.3 g/d for a total of 3 months).

In another data set the test system is in-stent restenosis. In words: In-stent restenosis in patients with drug-eluting stent implantation. Type of data set: in vivo, human. How it is done:
FIG. 5 is an experimental control diagram of berberine in the prevention and treatment of in-stent restenosis.
100 patients with drug-eluting stent implantation were randomly divided into two groups: a control group (without additional berberine) and a berberine group (additionally administered with berberine at 0.3 g/d since the 3th month after surgery for a total of 6 months), and coronary angiography was performed again at the 12th month after surgery.

The test system of data set [4] is myocardial infarction model. In words: Myocardial infarction animal model. Type of data set: in vivo. The text has this: FIG. 6 is an experimental result diagram showing berberine for prevention and treatment of ischemic cardiomyopathy.
30 animals in the myocardial infarction model were randomly divided into a control group and a berberine group by intragastric gavage.

Data set [5] concerns acute myocardial infarction. Nature of the data set: Cardiac failure in patients with acute myocardial infarction / ischemic cardiomyopathy. Type of data set: in vivo, human. The text has this: 40 patients with acute myocardial infarction were randomly divided into a control group and a berberine group (0.3 g, three times a day, three months later). The mean left ventricular ejection fraction of the control group is 41%, while the mean left ventricular ejection fraction of the berberine group is increased to 53% (p=0.037).

The conditions of data set [6]: cited from earlier work.
The mark [7] stands for this setting: beagles, intragastric gavage 0.1 g/d for 14 days before dehydrogenated monocrotaline 60 mg/kg, retested after 8 weeks, 9 of 10 animals.

For the molecule `COc1ccc2cc3[n+](cc2c1OC)CCc1cc2c(cc1-3)OCO2` [berberine], the “Grk2 and LKB1 after noradrenaline stimulation” value in data set [1] is listed as “significant decrease”. Besides, in data set [2] (8 control animals with mean pulmonary arterial pressure >25 mmHg, then berberine intragastric gavage 0.1 g/d for 42 days, at 14 weeks, FIG. 2), the “proliferation degree of pulmonary arterial smooth muscle / pathological remodeling of pulmonary vasculature” value is reported as “significantly reduced”. Also, the “mean pulmonary arterial pressure, one animal of the berberine group” value in data set [2] (beagles, intragastric gavage 0.1 g/d for 14 days before dehydrogenated monocrotaline 60 mg/kg, retested after 8 weeks, 1 of 10 animals) was 28 mmHg. In data set [2] (setting [7]), the “mean pulmonary arterial pressures, other 9 animals of the berberine group (bound)” value is < 25 mmHg and the “mean pulmonary arterial pressures, other 9 animals of the berberine group (mean ± spread)” value is 19±3.0 mmHg. Moreover, in data set [3] (FIG. 3), the “right ventricular function (right ventricular systolic displacement amplitude, TAPSE)” value was “significantly improved”. Besides, in data set [3] (FIG. 4), the “mean pulmonary arterial pressure” value is “significantly reduced”. Further, in the data set on in-stent restenosis (7 control patients with restenosis, oral berberine 0.3 g/d for 6 months, followed up 9 months, result in 6 patients, FIG. 5), the “stenosis degree in patients with restenosis treated afterwards” value is reported as “significantly reduced”. Further, the “proportion of in-stent restenosis” value in the data set on in-stent restenosis (berberine 0.3 g/d from 3rd month after surgery for 6 months, coronary angiography at 12th month, control 14%, p=0.035) is recorded as 4%. Moreover, in the data set with in-stent restenosis (berberine 0.3 g/d from 3rd month after surgery for 6 months, coronary angiography at 12th month, control N=7), the “number of cases showing restenosis” value is recorded as 2 cases. Also, in the data set with in-stent restenosis (patient with severe in-stent restenosis, continuous berberine treatment for 6 months, FIG. 5), the “in-stent restenosis on coronary angiography, single patient” value is “substantially disappears”. The molecule also gave a degree of stenosis in the data set with in-stent restenosis (restenosis cases of berberine group, 12th month after surgery, control 76.3±9%, p=0.029) of 58±4%. Moreover, the arrangement of cardiomyocytes entry in data set [4] (berberine treatment group) is given as “arranged intactly”. For the same molecule, in data set [4] (intragastric gavage, 0.3 g three times a day, three months later, FIG. 6 right A-C), the “apoptotic bodies (electron microscopy)” value is listed as “decrease”. The “apoptosis of myocardial cells” value in data set [4] (intragastric gavage, 0.3 g three times a day, three months later, fluorescent staining, FIG. 6 left) was “significantly reduces”. The “cardiac cavity, single patient” value in data set [5] (one patient with acute anterior myocardial infarction, berberine treatment for 3 months, FIG. 7) is “reduced”. For the same molecule, the “ejection fraction, single patient” value in data set [5] (one patient, day 22 after myocardial infarction, then berberine for 3 months, ultrasonic cardiography, FIG. 7) is listed as “significantly increased; also recorded: significant increased”. The “myocardial contractility / systolic function, single patient” value in data set [5] (one patient, berberine for 3 months, FIG. 7) is recorded as “improved; also recorded: significantly enhanced”. The “mean left ventricular ejection fraction” value in data set [5] (patients with acute myocardial infarction, 0.3 g three times a day, three months later, control 41%, p=0.037) was determined as 53%. The “solubility in benzene, diethyl ether, and chloroform” value in data set [6] (benzene, diethyl ether, chloroform) is recorded as “insoluble”. Further, the “solubility in water” value in data set [6] (water) is reported as “soluble”.
